Results: ChEMBL document CHEMBL5150075 (J Med Chem, 2022)
The source made the active and inactive calls. The rule behind the calls is not given here.

Tests used:
DU-145 = assay: Antiproliferative activity against human DU-145 cells assessed as inhibition of cell growth incubated for 72 hrs by real-time cell analysis; type: functional, cell-based; details: DU-145, 72 h
[1] = Cytotoxicity against African green monkey Vero cells assessed as reduction in cell viability measured after 48 hrs; type: toxicity, cell-based, Chlorocebus sabaeus
[2] = Toxicity in po dosed ICR mouse assessed as maximum tolerated dose measured on day 14; type: organism-based; details: in vivo, time 14 day
[3] = Toxicity in BALB/c nude mouse xenografted with human DU-145 cells assessed as reduction in body weight at 5 mg/kg, po administered once daily and measured twice a week; type: organism-based; details: in vivo
[4] = biological target: L-type calcium channel alpha-1c/beta-2/alpha2delta-1 (Homo sapiens, UniProt P54289+Q08289+Q13936); assay: Inhibition of human alpha1c/beta2a/alpha2delta1 Cav1.2 expressed in HEK293 cells assessed as effect on calcium flux by FLIPR analysis; type: toxicity, cell-based
[5] = Tmax in Kunming mouse at 20 mg/kg, po by LC-MS/MS analysis; type: ADME, organism-based; details: in vivo
[6] = biological target: Sodium channel protein type 5 subunit alpha (Homo sapiens, UniProt Q14524); assay: Inhibition of human Nav1.5 expressed in CHO cells by manual patch clamp method; type: toxicity, cell-based
HGC-27 = assay: Antiproliferative activity against human HGC-27 cells assessed as inhibition of cell growth incubated for 72 hrs by MTT assay; type: functional, cell-based; details: HGC-27, 72 h
Tubulin (Homo sapiens) = Tubulin (Homo sapiens) (UniProt P68371+Q9H4B7+P0DPH7+P68366+Q13509+Q71U36+P04350+Q3ZCM7+P07437+P68363+Q9BQE3+Q6PEY2+Q13885+Q9BVA1+Q9BUF5); assay: Inhibition of tubulin polymerization in human DU-145 cells assessed as inhibition of tubulin assembly at 0.1 uM incubated for 16 hrs by Hoechst staining based confocal microscopy analysis; type: cell-based
[7] = Selectivity index, ratio of IC50 for cytotoxicity against African green monkey Vero cells to IC50 for antiproliferative activity against human DU-145 cells; type: toxicity, cell-based; details: Vero cells and DU-145 cells, read-out: Ratio IC50

Chain of Sodium channel protein type 5 subunit alpha (Q14524 whole entry): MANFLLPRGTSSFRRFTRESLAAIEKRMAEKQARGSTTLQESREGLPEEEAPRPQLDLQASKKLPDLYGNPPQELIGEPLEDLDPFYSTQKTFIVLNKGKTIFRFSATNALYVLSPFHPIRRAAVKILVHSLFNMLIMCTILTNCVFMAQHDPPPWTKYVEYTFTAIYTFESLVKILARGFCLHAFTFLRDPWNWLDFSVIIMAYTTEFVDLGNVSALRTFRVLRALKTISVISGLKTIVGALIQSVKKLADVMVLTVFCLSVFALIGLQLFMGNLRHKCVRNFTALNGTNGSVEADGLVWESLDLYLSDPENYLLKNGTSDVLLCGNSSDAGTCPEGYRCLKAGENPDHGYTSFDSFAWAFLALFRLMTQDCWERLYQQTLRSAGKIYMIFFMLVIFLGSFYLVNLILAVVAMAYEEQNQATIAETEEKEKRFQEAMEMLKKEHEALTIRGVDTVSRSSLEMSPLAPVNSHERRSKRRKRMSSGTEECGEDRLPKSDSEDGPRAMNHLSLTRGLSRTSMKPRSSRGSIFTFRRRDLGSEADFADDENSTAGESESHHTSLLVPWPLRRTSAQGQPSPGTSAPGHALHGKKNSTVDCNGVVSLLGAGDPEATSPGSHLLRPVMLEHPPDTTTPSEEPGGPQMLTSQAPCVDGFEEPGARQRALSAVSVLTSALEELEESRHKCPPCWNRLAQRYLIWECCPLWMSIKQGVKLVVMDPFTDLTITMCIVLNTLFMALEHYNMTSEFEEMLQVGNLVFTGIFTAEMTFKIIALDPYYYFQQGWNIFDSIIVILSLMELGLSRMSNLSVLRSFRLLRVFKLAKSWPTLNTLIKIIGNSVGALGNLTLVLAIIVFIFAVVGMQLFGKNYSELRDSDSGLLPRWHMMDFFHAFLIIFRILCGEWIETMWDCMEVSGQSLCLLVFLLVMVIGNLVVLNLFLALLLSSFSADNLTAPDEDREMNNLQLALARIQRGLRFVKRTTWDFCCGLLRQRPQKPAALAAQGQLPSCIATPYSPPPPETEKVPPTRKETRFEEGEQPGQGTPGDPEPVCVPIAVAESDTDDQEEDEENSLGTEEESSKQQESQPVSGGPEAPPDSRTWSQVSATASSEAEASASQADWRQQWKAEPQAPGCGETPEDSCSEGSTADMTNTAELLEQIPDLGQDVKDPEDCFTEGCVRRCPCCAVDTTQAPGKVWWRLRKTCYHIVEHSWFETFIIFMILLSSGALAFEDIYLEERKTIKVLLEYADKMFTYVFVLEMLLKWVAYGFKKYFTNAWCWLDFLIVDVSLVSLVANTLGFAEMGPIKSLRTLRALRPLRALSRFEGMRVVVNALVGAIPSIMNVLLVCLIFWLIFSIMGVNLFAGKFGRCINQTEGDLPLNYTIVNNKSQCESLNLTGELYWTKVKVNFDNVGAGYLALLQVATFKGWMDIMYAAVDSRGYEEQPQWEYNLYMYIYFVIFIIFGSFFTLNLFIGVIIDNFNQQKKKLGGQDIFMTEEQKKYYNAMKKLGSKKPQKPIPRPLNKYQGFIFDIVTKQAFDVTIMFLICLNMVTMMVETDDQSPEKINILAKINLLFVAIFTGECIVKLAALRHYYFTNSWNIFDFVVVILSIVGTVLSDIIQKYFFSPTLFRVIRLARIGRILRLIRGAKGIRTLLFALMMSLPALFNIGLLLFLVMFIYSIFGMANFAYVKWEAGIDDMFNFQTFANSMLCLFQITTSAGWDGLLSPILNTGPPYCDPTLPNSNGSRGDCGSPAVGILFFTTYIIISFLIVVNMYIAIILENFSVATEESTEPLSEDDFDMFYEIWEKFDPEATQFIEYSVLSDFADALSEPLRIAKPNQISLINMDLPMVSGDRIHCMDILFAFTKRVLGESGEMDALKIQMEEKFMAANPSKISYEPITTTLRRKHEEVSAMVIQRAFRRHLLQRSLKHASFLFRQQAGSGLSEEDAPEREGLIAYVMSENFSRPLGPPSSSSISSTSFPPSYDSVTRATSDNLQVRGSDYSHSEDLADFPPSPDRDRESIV

Compound: Cc1ccc(S(=O)(=O)Nc2cc(C(=O)NCc3ccc(C)nc3)ccc2C)cc1
- IC50 (DU-145): 9 nM
- IC50 at 48 h [1]: 40 nM
- MTD at 336 h [2]: > 60 mg/kg
- Activity [3]: Non-Toxic
- IC50 [4]: > 30000 nM
- Tmax [5]: 4.98 min
- IC50 [6]: > 30000 nM
- IC50 (HGC-27): 6 nM
- inhibition (Tubulin (Homo sapiens)): Active
- selectivity ratio [7]: 4
